ChEMBL document CHEMBL1201862, “PubChem BioAssay data set” (2004)
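Briefly, cells in 96-well plates were exposed to five compound concentrations for 48 h, and endpoints were estimated by linear interpolation. GI50 is the concentration that inhibits growth by half.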 The source made the active and inactive calls. Rule as the data show it: active = GI50 up to about 1.1 µM and inactive = higher.

What was measured:
Experiment in all cases: NCI-60 cell line screen, 48 h
COLO 205 = system: COLO 205
IGROV-1 = system: IGROV-1
MDA-MB-435 = system: MDA-MB-435
MCF7 = system: MCF7
Malme-3M = system: Malme-3M
SF-295 = system: SF-295
LOX IMVI = system: LOX IMVI
HCC 2998 = system: HCC 2998
SF-268 = system: SF-268
UACC-62 = system: UACC-62
NCI-H522 = system: NCI-H522
ACHN = system: ACHN
Hs-578T = system: Hs-578T
TK-10 = system: TK-10
KM12 = system: KM12
NCI-H460 = system: NCI-H460
786-0 = system: 786-0
M14 = system: M14
SK-MEL-5 = system: SK-MEL-5
MOLT-4 = system: MOLT-4

Measured: GI50

O=C(O)/C=C\C(=O)Nc1ccc2c(c1)-c1ccccc1C2
inactive: COLO 205 > 100 µM | IGROV-1 > 100 µM | MDA-MB-435 > 100 µM | MCF7 37.3 µM | Malme-3M 63.7 µM | SF-295 > 100 µM | LOX IMVI 77.3 µM | HCC 2998 36.7 µM | SF-268 58.2 µM | UACC-62 > 100 µM | NCI-H522 37 µM | ACHN > 100 µM | Hs-578T 44.5 µM | TK-10 > 100 µM | KM12 > 100 µM | NCI-H460 > 100 µM | 786-0 91.4 µM | M14 > 100 µM | SK-MEL-5 > 100 µM

CCn1c(=O)c2nc(SC)sc2n(-c2ccccc2)c1=S
inactive: COLO 205 > 10 µM | IGROV-1 > 100 µM | MDA-MB-435 46.7 µM | MCF7 76.4 µM | Malme-3M > 100 µM | SF-295 > 100 µM | LOX IMVI 42.5 µM | HCC 2998 > 100 µM | SF-268 > 100 µM | MOLT-4 31.6 µM | UACC-62 38 µM | NCI-H522 79.3 µM | ACHN 43.9 µM | Hs-578T 40.3 µM | TK-10 > 100 µM | KM12 49.9 µM | NCI-H460 37.8 µM | 786-0 > 100 µM | M14 65.3 µM | SK-MEL-5 39.4 µM

C=CCNC(=S)NC=C(C(N)=O)C(N)=O
inactive: COLO 205 > 100 µM | IGROV-1 > 100 µM | MDA-MB-435 > 100 µM | MCF7 > 100 µM | Malme-3M > 100 µM | SF-295 > 100 µM | LOX IMVI > 100 µM | HCC 2998 > 100 µM | SF-268 > 100 µM | MOLT-4 > 100 µM | UACC-62 > 100 µM | NCI-H522 > 100 µM | ACHN > 100 µM | Hs-578T > 100 µM | KM12 > 100 µM | NCI-H460 > 100 µM | 786-0 > 100 µM | M14 > 100 µM | SK-MEL-5 > 100 µM

COc1ccc(C2=Nn3c(nc4sc(-c5ccccc5)cc4c3=O)SC2)cc1
inactive: COLO 205 > 100 µM | IGROV-1 > 100 µM | MDA-MB-435 > 100 µM | MCF7 > 100 µM | Malme-3M > 100 µM | SF-295 > 100 µM | LOX IMVI > 100 µM | HCC 2998 > 100 µM | SF-268 > 100 µM | MOLT-4 > 100 µM | UACC-62 > 100 µM | NCI-H522 > 100 µM | ACHN 7.35 µM | Hs-578T 34.4 µM | TK-10 > 100 µM | KM12 81.1 µM | NCI-H460 48.4 µM | 786-0 36.9 µM | SK-MEL-5 > 100 µM

O=C(CNc1ccccn1)Nn1cnc2ccc(S(=O)(=O)Nc3ccccn3)cc2c1=O
inactive: COLO 205 > 100 µM | IGROV-1 70.1 µM | MDA-MB-435 > 100 µM | MCF7 > 100 µM | Malme-3M > 100 µM | SF-295 > 100 µM | LOX IMVI > 100 µM | HCC 2998 > 100 µM | SF-268 > 100 µM | MOLT-4 > 100 µM | UACC-62 > 100 µM | NCI-H522 > 100 µM | ACHN > 100 µM | Hs-578T > 100 µM | TK-10 > 100 µM | KM12 > 100 µM | NCI-H460 > 100 µM | 786-0 > 100 µM | M14 > 100 µM

C=CCc1cccc2cc(C(=O)Nc3nc(C45CC6CC(CC(C6)C4)C5)cs3)c(=O)oc12
inactive: COLO 205 21.4 µM | IGROV-1 27.8 µM | MDA-MB-435 51.5 µM | MCF7 > 100 µM | Malme-3M 46 µM | SF-295 16.3 µM | LOX IMVI 19.4 µM | HCC 2998 33 µM | SF-268 10.7 µM | MOLT-4 34.7 µM | NCI-H522 49.7 µM | ACHN 17 µM | Hs-578T 16.4 µM | TK-10 30.8 µM | KM12 28.1 µM | NCI-H460 29.9 µM | 786-0 23.2 µM | SK-MEL-5 40.8 µM

CC(=O)N1C(Nc2cccc3nc(C)ccc23)CCN1c1ccccc1 (centres undefined)
inactive: COLO 205 > 10 µM | IGROV-1 > 10 µM | MDA-MB-435 > 10 µM | MCF7 > 10 µM | Malme-3M > 10 µM | SF-295 > 10 µM | LOX IMVI > 10 µM | HCC 2998 > 10 µM | SF-268 > 10 µM | MOLT-4 > 10 µM | NCI-H522 > 10 µM | ACHN > 10 µM | Hs-578T > 10 µM | TK-10 > 10 µM | NCI-H460 > 10 µM | 786-0 > 10 µM | M14 > 10 µM | SK-MEL-5 > 10 µM

COCCN(C(=O)c1ccccc1)C1CCC2(SCCS2)c2[nH]c3ccccc3c21 (centres undefined)
inactive: COLO 205 37.7 µM | IGROV-1 34.5 µM | MDA-MB-435 20.4 µM | MCF7 37.5 µM | Malme-3M 36.2 µM | SF-295 42.7 µM | LOX IMVI 57.7 µM | HCC 2998 51.4 µM | SF-268 > 100 µM | MOLT-4 18.5 µM | NCI-H522 23.3 µM | ACHN 37.5 µM | Hs-578T 29.4 µM | TK-10 79.1 µM | KM12 28.5 µM | NCI-H460 29.6 µM | 786-0 60.8 µM | SK-MEL-5 22.9 µM

CN(C(=O)c1ccc(Cl)cc1)C(=S)N1CCN(c2ccccc2)CC1
inactive: COLO 205 50.9 µM | IGROV-1 > 100 µM | MDA-MB-435 > 100 µM | MCF7 78.9 µM | Malme-3M > 100 µM | SF-295 > 100 µM | LOX IMVI > 100 µM | HCC 2998 > 100 µM | SF-268 > 100 µM | MOLT-4 58.3 µM | UACC-62 92.5 µM | NCI-H522 51.5 µM | ACHN > 100 µM | Hs-578T 19 µM | TK-10 > 100 µM | KM12 53.2 µM | NCI-H460 37.8 µM | 786-0 > 100 µM | M14 > 100 µM | SK-MEL-5 35.5 µM

c1ccc2c(-c3cnc(-c4c[nH]c5ccccc45)cn3)c[nH]c2c1
inactive: COLO 205 34.4 µM | IGROV-1 30.8 µM | MDA-MB-435 24.9 µM | MCF7 6.61 µM | Malme-3M 38.9 µM | SF-295 20.2 µM | LOX IMVI 29.3 µM | HCC 2998 42.6 µM | SF-268 50.6 µM | UACC-62 32.8 µM | NCI-H522 28.6 µM | ACHN 65.5 µM | Hs-578T 57.8 µM | TK-10 47.1 µM | KM12 74.1 µM | NCI-H460 46.9 µM | 786-0 38.1 µM | M14 29.1 µM | SK-MEL-5 50.1 µM

CCCCCCCCCCCC(=O)N(CCCCCCCCCCC(=O)O)CC(O)C(O)C(OC1OC(CO)C(O)C(O)C1O)C(O)CO (centres undefined)
inactive: COLO 205 > 100 µM | IGROV-1 > 100 µM | MDA-MB-435 > 100 µM | MCF7 > 100 µM | Malme-3M > 100 µM | SF-295 > 100 µM | LOX IMVI > 100 µM | HCC 2998 > 100 µM | SF-268 > 100 µM | MOLT-4 > 100 µM | UACC-62 > 100 µM | NCI-H522 > 100 µM | ACHN > 100 µM | Hs-578T > 100 µM | TK-10 > 100 µM | KM12 > 100 µM | NCI-H460 > 100 µM | 786-0 > 100 µM | M14 > 100 µM | SK-MEL-5 > 100 µM
